In ChEMBL document CHEMBL1201862, “PubChem BioAssay data set” (2004):
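Following 48 hours of exposure in 96-well plates, responses at five concentrations were used to interpolate endpoints linearly. Here, GI50 denotes the concentration required for 50% inhibition of growth.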 Activity calls are given as the source filed them. Cut-off read from the data, not from the text of the source: active = GI50 up to about 1.1 µM and inactive = higher.

How the values were obtained:
Assay in all cases: NCI tumour cell line growth inhibition, 48 h
[1] = test system: CAKI-1
[2] = test system: SK-MEL-28
[3] = test system: EKVX
[4] = test system: SF-539
[5] = test system: UACC-62
[6] = test system: M14
[7] = test system: XF498
[8] = test system: KM12
[9] = test system: MDA-MB-435
[10] = test system: UACC-257
[11] = test system: RXF 393
[12] = test system: HT-29
[13] = test system: SW-620
[14] = test system: DLD-1
[15] = test system: T47D
[16] = test system: DMS-114
[17] = test system: HCC 2998
[18] = test system: MOLT-4
[19] = test system: A498
[20] = test system: A549
[21] = test system: MDA-N
[22] = test system: Hs-578T
[23] = test system: ACHN
[24] = test system: OVCAR-8
[25] = test system: SN12C
[26] = test system: SNB-75
[27] = test system: LXFL 529
[28] = test system: OVCAR-4
[29] = test system: HCT-15
[30] = test system: NCI-H522
[31] = test system: M19-MEL
[32] = test system: DMS-273
[33] = test system: HOP-92
[34] = test system: MCF7
[35] = test system: SK-MEL-5
[36] = test system: Malme-3M
[37] = test system: HCT-116
[38] = test system: PC-3
[39] = test system: SF-268
[40] = test system: TK-10
[41] = test system: NCI-H23
[42] = test system: NCI-H460
[43] = test system: SNB-19
[44] = test system: OVCAR-3
[45] = test system: U-251
[46] = test system: HOP-62
[47] = test system: SK-OV-3
[48] = test system: HL-60
[49] = test system: MDA-MB-231
[50] = test system: OVCAR-5
[51] = test system: IGROV-1
[52] = test system: SK-MEL-2
[53] = test system: BT-549
[54] = test system: KM-20L2
[55] = test system: COLO 205
[56] = test system: SR
[57] = test system: RXF 631
[58] = test system: CCRF-CEM
[59] = test system: DU-145
[60] = test system: HOP-18
[61] = test system: SF-295
[62] = test system: NCI-H226
[63] = test system: LOX IMVI
[64] = test system: RPMI-8226
[65] = test system: 786-0
[66] = test system: SNB-78
[67] = test system: K562
[68] = test system: UO-31
[69] = test system: NCI/ADR-RES

For `COC1/C=C/OC2(C)Oc3c(C)c(O)c4c(c3C2=O)C(=O)C=C(NC(=O)/C(C)=C\C=C\C(C)C(OC=O)C(C)C(O)C(C)C(OC(C)=O)C1C)C4=O` (centres undefined), the GI50 [1] was 12 µM (inactive), the GI50 [2] was 6.64 µM (inactive) and the GI50 [3] was 14.7 µM (inactive). For the same compound, the GI50 [4] was 17.6 µM (inactive), the GI50 [5] was 12.7 µM (inactive) and the GI50 [6] was 8.65 µM (inactive). The GI50 [7] was 4 µM (inactive), the GI50 [8] was 26.8 µM (inactive) and the GI50 [9] was 16 µM (inactive). For the same compound, the GI50 [10] was 11.4 µM (inactive), the GI50 [11] was 7.67 µM (inactive) and the GI50 [12] was 10.5 µM (inactive). The GI50 [13] was 4.04 µM (inactive), the GI50 [14] was 9.89 µM (inactive) and the GI50 [15] was 3.65 µM (inactive). The GI50 [16] was 16.8 µM (inactive), the GI50 [17] was 19.6 µM (inactive) and the GI50 [18] was 3.01 µM (inactive). For the same compound, the GI50 [19] was 18.6 µM (inactive), the GI50 [20] was 21 µM (inactive) and the GI50 [21] was 15.8 µM (inactive). For the same compound, the GI50 [22] was 15.2 µM (inactive), the GI50 [23] was 8.67 µM (inactive) and the GI50 [24] was 15.3 µM (inactive). For the same compound, the GI50 [25] was 15.2 µM (inactive), the GI50 [26] was 18.3 µM (inactive) and the GI50 [27] was 6.5 µM (inactive). For the same compound, the GI50 [28] was 7.4 µM (inactive), the GI50 [29] was 8.61 µM and the GI50 [30] was 2.45 µM (inactive). The GI50 [31] was 13.1 µM (inactive), the GI50 [32] was 16.9 µM (inactive) and the GI50 [33] was 13.5 µM (inactive). The GI50 [34] was 2.93 µM (inactive), the GI50 [35] was 15.8 µM (inactive) and the GI50 [36] was 13.4 µM (inactive). For the same compound, the GI50 [37] was 4.82 µM (inactive), the GI50 [38] was 10.3 µM (inactive) and the GI50 [39] was 17.7 µM (inactive). The GI50 [40] was 16.6 µM (inactive), the GI50 [41] was 14.4 µM (inactive) and the GI50 [42] was 21.1 µM (inactive). The GI50 [43] was 14.5 µM (inactive), the GI50 [44] was 3.76 µM (inactive) and the GI50 [45] was 20.6 µM (inactive). For the same compound, the GI50 [46] was 18.7 µM (inactive), the GI50 [47] was 28.7 µM (inactive) and the GI50 [48] was 2.33 µM (inactive). For the same compound, the GI50 [49] was 13.4 µM (inactive), the GI50 [50] was 20.7 µM (inactive) and the GI50 [51] was 18.5 µM (inactive). For the same compound, the GI50 [52] was 20 µM (inactive), the GI50 [53] was 11.1 µM (inactive) and the GI50 [54] was 18.2 µM (inactive). For the same compound, the GI50 [55] was 4.59 µM (inactive), the GI50 [56] was 2.77 µM (inactive) and the GI50 [57] was 15.7 µM (inactive). The GI50 [58] was 2.03 µM (inactive), the GI50 [59] was 18.8 µM (inactive) and the GI50 [60] was 5.36 µM (inactive). The GI50 [61] was 23.3 µM (inactive), the GI50 [62] was 13.6 µM (inactive) and the GI50 [63] was 7.5 µM (inactive). For the same compound, the GI50 [64] was 5.22 µM (inactive), the GI50 [65] was 8.24 µM (inactive) and the GI50 [66] was 20.1 µM (inactive). For the same compound, the GI50 [67] was 3.61 µM (inactive), the GI50 [68] was 16 µM (inactive) and the GI50 [69] was 17.5 µM (inactive).
